From patent US9901611B2 (Molecular Defenses Corporation, priority 2015, dated 2018)
Like-named read-outs stand apart in the source and are kept apart here.

Assays:
[1] = rat, i.v. bolus, cited from earlier work
HIV-1 = conditions: in vitro, cited from earlier work
[2] = 5 g oral per day, two female patients who survived 1 year; cited from earlier work
[3] = cited from earlier work
[4] = human, in vivo, iv; cited from earlier work
[5] = mouse, GSH pretreatment; cited from earlier work
[6] = in vivo, po; for share absorbed and intracellular: 1.5 hours
Description: It would be possible to follow the two groups and to compare the rates of progression to determine statistically significant differences.

HIV = conditions: U1 cells, in the absence of cytotoxic or cytostatic effects; cited from earlier work
[7] = infusion 10 mg/min for 120 min, cited from earlier work
[8] = test system: mouse cytotoxic T-lymphocytes; conditions: i.p. injection on the third day post immunization; cited from earlier work
[9] = Phase I/II clinical trial of oral GSH in HIV positive patients, PBMC intracellular GSH; format: in vivo, human
Description: Early clinical trials determined the pharmacokinetics of absorption and intracellular distribution in Peripheral Blood Mononuclear Cells in asymptomatic HIV (+) patients, using three doses of 1 gm, 2 gms and 3 gms/day over a 4 week period, with two weeks of baselines, plus two weeks of post drug exposure.

microglial cells = conditions: microglia, NO and superoxide generated simultaneously; cited from earlier work
[10] = 1,200 mg/day i.v., compared to baseline; cited from earlier work
[11] = far advanced AIDS
Description: A clinical study on far advanced AIDS patients who had exhausted the HAART combinations and averaged 300,000 copies (HIV RNA PCR) and 50 CD4+ cells/per cubic mm.

[12] = test system: high-affinity component of mitochondrial GSH transport; conditions: stimulated by ATP; cited from earlier work
HIV-1 LTR = conditions: Jurkat cells, synergistic induction by TNFα and Tat; cited from earlier work
[13] = rats, LPS; cited from earlier work
[14] = high end of dose range 50-300 mmol/kg
[15] = low end of dose range 50-300 mmol/kg
[16] = asymptomatic HIV (+) patients, 1, 2 and 3 gms/day

In the case of `N[C@@H](CCC(=O)N[C@@H](CS)C(=O)NCC(=O)O)C(=O)O` [GSH, gamma-glutamyl-cysteinyl-glycine], the “apparent volume of distribution” value [1, 14] is given as 1.33 L/kg, the “half-life of the elimination phase” value [1, 14] is given as 11.4 min and the “rate constant for drug elimination and plasma clearance” value [1, 14] is given as 2.44 mL/min. For the same compound, the “apparent volume of distribution” value [1, 15] was 3.78 L/kg, the “half-life of the elimination phase” value [1, 15] was 52.4 min and the “rate constant for drug elimination and plasma clearance” value [1, 15] was 0.84 mL/min. The “duration of suppression of HIV production” value (HIV-1; intracellular GSH in infected monocytes raised to the high end of the normal range) was “about 35 days”, the “HIV-1 p24 antigen levels and reverse transcriptase activity” value (HIV-1; single pulse exposure) was “sustained, concentration-dependent decrease” and the tumor growth [2] was “regression or stagnation of their tumor growth”. The “systolic and diastolic blood pressure” value ([3]; 1,844 mg i.v. bolus, hypertensive patients and non-hypertensive diabetics, within ten minutes) was “rapid and significant decrease”, the blood pressure values ([3]; 3,699 mg dose, normal subjects) was “significant decrease” and the half-life [4] was 14.1 ± 9.2 min. The morphine-induced lethality [5] was “protects against morphine-induced lethality”, the “share absorbed and intracellular” value ([6]; human) was 70-80% and the toxicities [6] was “no significant toxicities”. For the same compound, the “share absorbed and intracellular” value [6] was 80%, the “induction of HIV expression mediated by PMA, TNF-α or IL-6” value (“induction of HIV expression mediated” for short) (HIV) was “suppressed in a dose-dependent fashion” and the “insulin clearance and action” value [7] was “No effect was seen”. For the same compound, the glucose-induced insulin secretion ([7]; patients with IGT) was “significantly potentiated”, the “augmentation of cytotoxic activity” value [8] was 5 fold and the “relation of dose to PBMC GSH” value ([9]; 1 gm, 2 gms and 3 gms/day) was “dose response relationship”. For the same compound, the “completion of absorption and distribution within the PBMC” value [9, 16] was 60 min, the “start of absorption and distribution within the PBMC after ingestion” value [9, 16] was 30 min and the toxicities ([9]; asymptomatic HIV (+) patients, 4 week period) was “no evidence of toxicities”. For the same compound, the peroxynitrite formation (microglial cells) was “significantly decreased”, the “hematologic parameters (hematocrit, hemoglobin, blood count)” value [10] was “significantly increase” and the “survival after starting on GSH” value ([11]; 75 mg/kg in two divided doses, four patients who followed the regimen) was 3 years. The “CD4+ cell counts” value ([11]; four patients) was “did not restore their CD4+ cell counts to any extent”, the Km [12] was roughly 60 µM and the V max [12] was “approximately 0.5 nM/min per mg of protein”.

In the case of `CC(=O)N[C@@H](CS)C(=O)O` [NAC, N-acetyl-L-cysteine], the “HIV-1 LTR-mediated gene expression” value (HIV-1 LTR) is listed as “significantly suppressed”, the “decrease of lung lavage neutrophil count” value [13] is listed as “six fold” and the “induction of HIV expression mediated” value (HIV) is listed as “suppressed in a dose-dependent fashion”.

For `N/C(=N\O)c1cc(O)c(O)c(O)c1` [TD, Trimidox], the “HIV-1 LTR-mediated gene expression” value (HIV-1 LTR) is listed as “significantly suppressed”.

In the case of GSH ester [GSE], the “induction of HIV expression mediated” value (HIV) is listed as “suppressed in a dose-dependent fashion”.
